Here are results for 1 compound from patent publication US20240041830A1, “CIRCULATING BIOMARKERS OF RESPONSE TO PD-1/PD-L1 BLOCKADE AND GSK-3 INHIBITION” (Brown University, priority 2022, published 2024).

The structures appear in SMILES notation.

In one test the test system is HT-29 GFP+ cells. The test is described as follows: single-color GFP+ immune cell co-culture.
The subject of a further test is SW480. The test is described as follows: multicolor co-culture of SW480 and donor-derived CD8+ T cells. Conditions: co-culture with donor-derived CD8+ T cells, 24 hours, normalized.

Protocol for HT-29 GFP+ cells: Single-color immune cell co-culture experiments. A total of 5000 HT-29 GFP+ or HCT 116 GFP+ cells were plated per well in a clear-bottom, black-walled 96-well tissue culture plate and were allowed to adhere overnight. Cells were subsequently treated with DMSO, 5 μM elraglusib, or 5000 TALL-104 or NK-92 cells (for an effector-to-tumor ratio of 1:1) for forty-eight hours. Nine images were taken per well at 10× magnification using a Molecular Devices ImageXpress® Confocal HT.ai High-Content Imaging System and quantified for the number of GFP+ objects using the MetaXpress (RRID: SCR_016654) software (Molecular Devices, San Jose, CA, USA). 40× images were also taken at twenty-four hours for representative images of cellular morphology changes.
To determine if pyroptosis-mediated immune cell activity played a role in the co-culture results, the inventors examined higher-power co-culture images for evidence of pyroptosis.
Protocol for SW480: Isolation of donor-derived CD8+ T cells. An Easy Step Human CD8+ T Cell Isolation Kit was used to isolate CD8+ T cells from a donor PBMC sample via negative selection (Cat #, 17913, Stem Cell Technologies, Vancouver, Canada).
Multicolor immune cell co-culture experiments. A total of 10,000 HCT-116, SW480, or HT-29 colorectal cancer cells were plated per well in a clear-bottom, black-walled 48-well tissue culture plate and were allowed to adhere overnight. Cells were subsequently treated with DMSO, 5 μM or 10 μM elraglusib, or 10,000 TALL-104, donor-derived CD8+ T cells, or NK-92 cells (for an effector-to-tumor ratio of 1:1) for twenty-four hours. Immune cell monocultures were treated with DMSO, 5 μM or 10 μM elraglusib and cell viability was monitored to ensure that the concentrations of drug used were not cytotoxic to immune cells. […] 10× images were captured using a Nikon Ti-U Inverted Fluorescence Microscope and NIS-Elements F Package imaging software 3.22.00 Build 710 (Nikon Instruments Inc., New York, NY, USA). The number of red/green color cells in random fields was determined using thresholding and particle analysis in the Fiji modification (RRID: SCR_002285) of ImageJ and expressed as a dead/live cell ratio. […] At least one hundred cells were evaluated per sample, with three independent replicates. […]

As to `Cn1cc(C2=C(c3coc4ccc(F)cc34)C(=O)NC2=O)c2cc3c(cc21)OCO3` [elraglusib], the “tumor cell death, significance” value in the test on HT-29 GFP+ cells (NK-92 + elraglusib vs elraglusib only) is on record as “did not show statistical significance”. Also, the tumor cell death result in the test with HT-29 GFP+ cells (NK-92 + elraglusib vs immune cells only and DMSO only) is “increased tumor cell death”; in the test with HT-29 GFP+ cells (TALL-104 + 5 μM elraglusib vs drug-only or T cell-only), “increased tumor cell death”. The pyroptotic events result in the test with HT-29 GFP+ cells (co-culture with TALL-104, 5 μM elraglusib) is listed as “significant increase”. Moreover, the “dead cells out of total cells” value with SW480 (5 μM) worked out at 65%; in the test on SW480 (10 μM) it was 75%.
